Patent publication US20100267561A1, “HERBICIDAL PYRIDAZINONE DERIVATIVES” (priority 2007, published 2010)

What was measured:
[1] = test system: blackgrass (Alopecurus myosuroides); assay: Test A pre-/postemergence plant response; format: in vivo
Procedure, shortened: (§1)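 Soil: loam blended with sand. Formulation: non-phytotoxic solvent mixture plus surfactant, applied as preemergence directed soil spray and as postemergence spray. Scoring: visual, 0 no effect to 100 complete control, roughly 10 days post-treatment in greenhouse.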

[2] = test system: canarygrass (Phalaris minor); assay: Test A pre-/postemergence plant response; format: in vivo
Procedure, shortened: as §1

[3] = Postemergence, 31 g ai/ha, 0 to 100 scale (0 no effect, 100 complete control)
[4] = Postemergence, 125 g ai/ha, 0 to 100 scale, 0 no effect, 100 complete control
[5] = Preemergence, 31 g ai/ha, 0 to 100 scale, 0 is no effect, 100 is complete control
[6] = Preemergence, 125 g ai/ha, 0 to 100 scale (0 no effect, 100 complete control)

Row | Compound | Plant response rating, Blackgrass [1, 3] | Plant response rating, Blackgrass [1, 4] | Plant response rating, Blackgrass [1, 5] | Plant response rating, Blackgrass [1, 6] | Plant response rating, Canarygrass [2, 3] | Plant response rating, Canarygrass [2, 4] | Plant response rating, Canarygrass [2, 5] | Plant response rating, Canarygrass [2, 6]
1 | Cc1nn(C)c(=O)c(-n2nc(-c3ccc(C(F)(F)F)cc3)cc2C)c1O [Compound 75, 5-hydroxy-2,6-dimethyl-4-[5-methyl-3-[4-(trifluoromethyl)phenyl]-1H-pyrazol-1-yl]-3(2H)-pyridazinone] | 40 | 90 | 40 | 80 | 10 | 80 | 10 | 80
2 | Cc1cc(-c2ccc(Br)cc2)nn1-c1c(O)cn[nH]c1=O [Compound 78, 4-[3-(4-bromophenyl)-5-methyl-1H-pyrazol-1-yl]-5-hydroxy-3(2H)-pyridazinone] | 90 | 100 | 0 | 100 | 40 | 70 | 0 | 100
3 | Cc1cc(-c2ccc(Br)cc2)nn1-c1c(OC(=O)C2CC2)cnn(C(=O)C2CC2)c1=O [Compound 80, 5-[3-(4-bromophenyl)-5-methyl-1H-pyrazol-1-yl]-1-(cyclopropylcarbonyl)-1,6-dihydro-6-oxo-4-pyridazinyl cyclopropanecarboxylate] | 30 | 100 | 70 | 100 | 40 | 100 | 60 | 100
4 | Cc1nn(C)c(=O)c(-n2nc(-c3ccc(Br)cc3)cc2C)c1O [Compound 81] | 100 | 100 | 70 | 100 | 60 | 100 | 50 | 90
